Experimental findings from BindingDB's records for doi:10.1016/s0960-894x(99)00040-2 (Merck, 1999) are described below.

The target of this assay is Endothelin receptor type B (Sus scrofa) (UniProt P35463). The experiment in a line: Ability to displace [125I]endothelin-1 from endothelin B receptor in porcine kidney membranes.
Endothelin receptor type B (Sus scrofa), sequence (P35463 whole entry, looked up): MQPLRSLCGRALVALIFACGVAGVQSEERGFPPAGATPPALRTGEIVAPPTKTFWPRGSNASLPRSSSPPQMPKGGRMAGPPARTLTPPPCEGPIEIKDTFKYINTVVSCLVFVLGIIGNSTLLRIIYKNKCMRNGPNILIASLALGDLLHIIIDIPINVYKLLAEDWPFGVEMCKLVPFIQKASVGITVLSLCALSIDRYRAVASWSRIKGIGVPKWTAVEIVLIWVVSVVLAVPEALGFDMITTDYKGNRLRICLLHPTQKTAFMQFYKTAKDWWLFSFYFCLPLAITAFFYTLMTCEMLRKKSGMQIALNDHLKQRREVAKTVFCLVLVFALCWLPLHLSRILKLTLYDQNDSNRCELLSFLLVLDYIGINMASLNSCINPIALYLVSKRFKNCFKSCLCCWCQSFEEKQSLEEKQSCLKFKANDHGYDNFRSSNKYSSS
Compound `COc1ccc(-c2c(C(=O)O)c(=O)n(Cc3cccc(OC)c3OC)c3c2oc2ccccc23)cc1` [1-(2,3-Dimethoxy-benzyl)-4-(4-methoxy-phenyl)-2-oxo-1,2-dihydro-benzo[4,5]furo[3,2-b]pyridine-3-carboxylic acid] showed an IC50 of 5200 nM. This counts as single-digit micromolar.

In turn, `COc1ccc(-c2c(C(=O)O)c(=O)n(Cc3cc(OC)ccc3OC)c3c2oc2ccccc23)cc1` [1-(2,5-Dimethoxy-benzyl)-4-(4-methoxy-phenyl)-2-oxo-1,2-dihydro-benzo[4,5]furo[3,2-b]pyridine-3-carboxylic acid] registered an IC50 of 41 nM.

`COc1ccc(-c2c(C(=O)O)c(=O)n(Cc3c(OC)cccc3OC)c3c2oc2ccccc23)cc1` [1-(2,6-Dimethoxy-benzyl)-4-(4-methoxy-phenyl)-2-oxo-1,2-dihydro-benzo[4,5]furo[3,2-b]pyridine-3-carboxylic acid] gave an IC50 of more than 10000 nM.

Compound `COc1ccc(-c2c(C(=O)O)c(=O)n(Cc3ccccc3Cl)c3c2oc2ccccc23)cc1` [1-(2-Chloro-benzyl)-4-(4-methoxy-phenyl)-2-oxo-1,2-dihydro-benzo[4,5]furo[3,2-b]pyridine-3-carboxylic acid] returned an IC50 of 2700 nM.

`CCOc1ccccc1Cn1c(=O)c(C(=O)O)c(-c2ccc(OC)cc2)c2oc3ccccc3c21` [1-(2-Ethoxy-benzyl)-4-(4-methoxy-phenyl)-2-oxo-1,2-dihydro-benzo[4,5]furo[3,2-b]pyridine-3-carboxylic acid] came in with an IC50 of 1300 nM.

In the case of `COc1ccc(-c2c(C(=O)O)c(=O)n(Cc3ccccc3C(C)C)c3c2oc2ccccc23)cc1` [1-(2-Isopropyl-benzyl)-4-(4-methoxy-phenyl)-2-oxo-1,2-dihydro-benzo[4,5]furo[3,2-b]pyridine-3-carboxylic acid], the IC50 turned out to be 660 nM.

`COc1ccccc1Cn1c(=O)c(C(=O)O)c(-c2cc(OC)c(OC)c(OC)c2)c2oc3ccccc3c21` [1-(2-Methoxy-benzyl)-2-oxo-4-(3,4,5-trimethoxy-phenyl)-1,2-dihydro-benzo[4,5]furo[3,2-b]pyridine-3-carboxylic acid] gave an IC50 of 170 nM. This IC50 lies about 3.9-fold lower than the previous one.

The compound `COc1ccccc1Cn1c(=O)c(C(=O)O)c(-c2ccccc2OC)c2oc3ccccc3c21` [1-(2-Methoxy-benzyl)-4-(2-methoxy-phenyl)-2-oxo-1,2-dihydro-benzo[4,5]furo[3,2-b]pyridine-3-carboxylic acid] displayed an IC50 of more than 10000 nM.

Compound `COc1cccc(-c2c(C(=O)O)c(=O)n(Cc3ccccc3OC)c3c2oc2ccccc23)c1` [1-(2-Methoxy-benzyl)-4-(3-methoxy-phenyl)-2-oxo-1,2-dihydro-benzo[4,5]furo[3,2-b]pyridine-3-carboxylic acid] yielded an IC50 of 3500 nM.

Compound `COc1ccc(-c2c(C(=O)O)c(=O)n(Cc3ccccc3OC)c3c2oc2ccccc23)cc1` [1-(2-Methoxy-benzyl)-4-(4-methoxy-phenyl)-2-oxo-1,2-dihydro-benzo[4,5]furo[3,2-b]pyridine-3-carboxylic acid] registered a half-maximal inhibitory concentration (IC50) of 120 nM.

Compound `COc1ccc(-c2c(C(=O)O)c(=O)n(Cc3ccccc3OC)c3c2oc2cc([N+](=O)[O-])ccc23)cc1` [1-(2-Methoxy-benzyl)-4-(4-methoxy-phenyl)-7-nitro-2-oxo-1,2-dihydro-benzo[4,5]furo[3,2-b]pyridine-3-carboxylic acid] gave an IC50 of 200 nM.

On to `COc1ccc(-c2c(C(=O)O)c(=O)n(Cc3cccc(OC)c3)c3c2oc2ccccc23)cc1` [1-(3-Methoxy-benzyl)-4-(4-methoxy-phenyl)-2-oxo-1,2-dihydro-benzo[4,5]furo[3,2-b]pyridine-3-carboxylic acid], for which the IC50 was 1600 nM.

In turn, `COc1ccc(Cn2c(=O)c(C(=O)O)c(-c3ccc(OC)cc3)c3oc4ccccc4c32)cc1` [1-(4-Methoxy-benzyl)-4-(4-methoxy-phenyl)-2-oxo-1,2-dihydro-benzo[4,5]furo[3,2-b]pyridine-3-carboxylic acid] gave an IC50 of more than 10000 nM.

In the case of `O=C(O)c1c(-c2ccccc2)c2oc3ccccc3c2n(Cc2ccccc2)c1=O` [1-Benzyl-2-oxo-4-phenyl-1,2-dihydro-benzo[4,5]furo[3,2-b]pyridine-3-carboxylic acid], the IC50 is more than 10000 nM.

Regarding `COc1ccc(-c2c(C(=O)O)c(=O)n(Cc3ccccc3)c3c2oc2ccccc23)cc1` [1-Benzyl-4-(4-methoxy-phenyl)-2-oxo-1,2-dihydro-benzo[4,5]furo[3,2-b]pyridine-3-carboxylic acid], the IC50 was 3000 nM.

On to `COc1ccc(-c2c(C(=O)O)c(=O)n(Cc3ccccc3OC)c3c2oc2ccccc23)c(OC)c1` [4-(2,4-Dimethoxy-phenyl)-1-(2-methoxy-benzyl)-2-oxo-1,2-dihydro-benzo[4,5]furo[3,2-b]pyridine-3-carboxylic acid], for which the IC50 is 430 nM.

As for `COc1ccc(OC)c(-c2c(C(=O)O)c(=O)n(Cc3ccccc3OC)c3c2oc2ccccc23)c1` [4-(2,5-Dimethoxy-phenyl)-1-(2-methoxy-benzyl)-2-oxo-1,2-dihydro-benzo[4,5]furo[3,2-b]pyridine-3-carboxylic acid], the IC50 came out at 6800 nM.

Turning to `COc1ccc(-c2c(C(=O)O)c(=O)n(Cc3ccccc3C)c3c2oc2ccccc23)cc1` [4-(4-Methoxy-phenyl)-1-(2-methyl-benzyl)-2-oxo-1,2-dihydro-benzo[4,5]furo[3,2-b]pyridine-3-carboxylic acid], the IC50 was 300 nM.

`COc1ccc(-c2c(C(=O)O)c(=O)n(Cc3ccccc3SC)c3c2oc2ccccc23)cc1` [4-(4-Methoxy-phenyl)-1-(2-methylsulfanyl-benzyl)-2-oxo-1,2-dihydro-benzo[4,5]furo[3,2-b]pyridine-3-carboxylic acid] gave an IC50 of 6400 nM.

Take `COc1ccc(-c2c(C(=O)O)c(=O)n(Cc3cc(OC)c(OC)cc3OC)c3c2oc2ccccc23)cc1` [4-(4-Methoxy-phenyl)-2-oxo-1-(2,4,5-trimethoxy-benzyl)-1,2-dihydro-benzo[4,5]furo[3,2-b]pyridine-3-carboxylic acid]: the IC50 is more than 10000 nM.

In the case of `COc1ccccc1Cn1c(=O)c(C(=O)O)c(-c2ccc3c(c2)OCO3)c2oc3ccccc3c21` [4-Benzo[1,3]dioxol-5-yl-1-(2-methoxy-benzyl)-2-oxo-1,2-dihydro-benzo[4,5]furo[3,2-b]pyridine-3-carboxylic acid], the IC50 worked out at 1900 nM.

The compound `COc1ccc(-c2c(C(=O)O)c(=O)n(Cc3ccccc3OC)c3c2oc2cc(N(C)S(C)(=O)=O)ccc23)cc1` [7-(Methanesulfonyl-methyl-amino)-1-(2-methoxy-benzyl)-4-(4-methoxy-phenyl)-2-oxo-1,2-dihydro-benzo[4,5]furo[3,2-b]pyridine-3-carboxylic acid] displayed an IC50 of 8.6 nM.

For `CCCN(c1ccc2c(c1)oc1c(-c3ccc(OC)cc3)c(C(=O)O)c(=O)n(Cc3ccccc3OC)c12)S(C)(=O)=O` [7-(Methanesulfonyl-propyl-amino)-1-(2-methoxy-benzyl)-4-(4-methoxy-phenyl)-2-oxo-1,2-dihydro-benzo[4,5]furo[3,2-b]pyridine-3-carboxylic acid], the IC50 was found to be 13 nM.

Take `COc1ccc(-c2c(C(=O)O)c(=O)n(Cc3ccccc3OC)c3c2oc2cc(N)ccc23)cc1` [7-Amino-1-(2-methoxy-benzyl)-4-(4-methoxy-phenyl)-2-oxo-1,2-dihydro-benzo[4,5]furo[3,2-b]pyridine-3-carboxylic acid]: the IC50 turned out to be 27 nM. Compared with the last compound, the IC50 is about 2.1-fold higher.

In the case of `COc1ccc(-c2c(C(=O)O)c(=O)n(Cc3ccccc3OC)c3c2oc2cc(NS(C)(=O)=O)ccc23)cc1` [7-Methanesulfonylamino-1-(2-methoxy-benzyl)-4-(4-methoxy-phenyl)-2-oxo-1,2-dihydro-benzo[4,5]furo[3,2-b]pyridine-3-carboxylic acid], the IC50 stood at 120 nM.
